Laboratory results reported in patent publication US11390900B2, “Antimicrobial cartridges and processes for multiplexed antimicrobial susceptibility testing” (priority 2018, dated 2022).
Read-outs that look alike come from different tables or passages of the source.

Assays:
patient sample microbes [1] = test: AST MIC results for antimicrobial panel 1 (384-well panel from Master Plate vs 96-well panel); format: cell-based; settings: for MICs obtained from panel made from Master Plate: antimicrobial panel 1, 384 well patient cartridge; for MICs obtained from 96-well Antibiotic Panel: antimicrobial panel 1, standard 96 well AST assay plate
Text: (§1) An assay setup comprises preparation of patient (target) cartridge by dispensing antimicrobials were from the master cartridge or intermediate serial dilution cartridges into one or more 384 reservoir patient cartridge, each antimicrobial in about 7 serial dilutions in triplicate, and covering the dynamic range of each antimicrobial that is known to be effective and therefore should be reported. The dilution range included the expected minimum inhibitory concentration (MIC) for each antimicrobial. But most importantly, dilution ranges, that is, antimicrobial concentrations beyond the range known to be effective are included in the patient cartridge as per the present invention.
(§2) The remaining reservoirs of the 384 well patient cartridge are utilized for setting up test controls: a no-antimicrobial control (negative control) was included for each antimicrobial compound; and a positive control was included for each antimicrobial set, where a microorganism that is not susceptible to the antimicrobial was added to the well. Each control set was also dispensed at least in duplicate per 384 well cartridge. Additional test controls may be included as deemed necessary by one of skill in the art. Equal amount of a patient sample was dispensed to each of the wells in the cartridge, except in the wells designated for no-sample control, if included. The patient cartridge was ready for determination of susceptibility of microbes from the patient sample to the twelve antimicrobials at the range of concentrations applied, simultaneously. Multiple such plates can be set up in parallel for testing samples from multiple patients, each patient sample per plate. An AST assay was performed on the prepared patient cartridges.
(§3) First, three master plates are loaded by the user onto chilled plate holders (set to 4° C.). These consist of one Broad Spectrum, one Gram-Positive and one Gram-Negative antibiotic plate. Next the bulk reagents and pipette tips are loaded on tube rack. Master and bulk reagent pipette tips and sample dilution tray are reloaded every 12 samples. For every set of tests, up to four Patient Samples in tubes and up to four 384-well Target Plates (Patient plate) are loaded.
(§4) Antibiotics are transferred from Broad Spectrum Master Plate to Target Plate(s). Antibiotics are “stamped” according to FIG. 10A-B. The inoculator tips should be placed back in the same position of the Broad Spectrum Tip Box for use on subsequent target plates, but should only be used for same antibiotics to avoid cross contamination.
(§5) Antimicrobials are transferred from Gram-Positive OR Gram-Negative Master Plate to Target Plate(s) and the antibiotics are “stamped” according to FIG. 11A-B. The inoculator should place tips back in the same position of the correct tip box for use on subsequent target plates. Good care is taken such that any cross contamination is prevented.
(§6) Using new tips from the Sample Tip Box, 50 μL of diluted patient sample are transferred into Target Plate according to Table Four, this is done with a “jet dispense” to avoid cross contamination. After the Patient Sample has been transferred to each well on the Target Plate, the tips should be disposed of to avoid cross contamination. The above steps are repeated for each additional Patient Sample and Target Plate.
(§7) Shown in Table 6 and Table 7, MIC results for antimicrobial panels 1 and 2 respectively using a master cartridge format and a 384 well patient cartridge (column 3) agrees reliably with that run by standard 96 well AST assay plate (right hand column).

patient sample microbes [2] = test: AST MIC results for antimicrobial panel 2 (384-well panel from Master Plate vs 96-well panel); format: cell-based; settings: for MICs obtained from panel made from Master Plate: antimicrobial panel 2, 384 well patient cartridge; for MICs obtained from 96-well Antibiotic Panel: antimicrobial panel 2, standard 96 well AST assay plate
Text: as §1, §2, §3, §4, §5, §6, §7

K. pneumoniae 700603 = settings: MIC range, K. pneumoniae 700603, Gram negative panel; cited from earlier work
S. aureus 29213 = settings: cited from earlier work; for CLSI-Defined QC Range, screen result: S. aureus 29213, no growth @ 0.5/4 (Cli/Ery), @ 4 (cefoxitin), @ 256 (mupirocin)
patient sample microbes [3] = settings: antimicrobial panel 1, MIC range; cited from earlier work
patient sample microbes [4] = settings: antimicrobial panel 2, MIC range; cited from earlier work
E. faecalis 29212 = settings: cited from earlier work; for CLSI-Defined QC Range, screen result: E. faecalis 29212, no growth @ 100 48 hrs (streptomycin), @ 500 24 hrs (gentamicin); for CLSI-Defined QC Range: MIC range
E. faecalis 51299 = settings: growth @ 100 (streptomycin), @ 500 (gentamicin); cited from earlier work
E. coli 25922 = settings: MIC range, E. coli 25922, Gram negative panel; cited from earlier work
S. aureus 43300 = settings: growth @ 4; cited from earlier work
S. aureus BAA-1708 = settings: growth @ 256; cited from earlier work
[5] = E. faecalis 29212, Gram positive panel

Work on `CC(C)(O/N=C(\C(=O)N[C@@H]1C(=O)N2C(C(=O)[O-])=C(C[n+]3ccccc3)CS[C@H]12)c1csc(N)n1)C(=O)O` [Ceftazidime] yielded an MICs obtained from panel made from Master Plate (patient sample microbes [1]) of no more than 1 µg/mL, an MICs obtained from 96-well Antibiotic Panel (patient sample microbes [1]) of 0.25 µg/mL and an MICs obtained from panel made from Master Plate (patient sample microbes [2]) of 4 µg/mL. The MICs obtained from 96-well Antibiotic Panel (patient sample microbes [2]) was 8 µg/mL, the “CLSI-Defined QC Range” value (K. pneumoniae 700603) was 16 to 64 µg/mL and the “CLSI-Defined QC Range” value (S. aureus 29213; MIC range, S. aureus 29213, Gram negative panel) was 4 to 16 µg/mL. For the same compound, the “Quality Control Range” value (patient sample microbes [3]) was 0.06-0.5 and the “Quality Control Range” value (patient sample microbes [4]) was 4-16.

In the case of `CC1(C)S[C@@H]2[C@H](NC(=O)[C@H](N)c3ccc(O)cc3)C(=O)N2[C@H]1C(=O)O` [Amoxicillin (alone), Amoxicillin], the “CLSI-Defined QC Range” value (K. pneumoniae 700603) is listed as greater than 128 µg/mL.

In the case of `[H]/N=C(/N)N[C@H]1[C@H](O)[C@@H](O)[C@H](O[C@@H]2O[C@@H](C)[C@](O)(C=O)[C@H]2O[C@@H]2O[C@@H](CO)[C@H](O)[C@@H](O)[C@@H]2NC)[C@@H](N/C(N)=N\[H])[C@@H]1O` [Streptomycin High Level Screen, Streptomycin], the “CLSI-Defined QC Range, screen result” value (E. faecalis 29212) is listed as “Negative (No growth” and the “CLSI-Defined QC Range, screen result” value (E. faecalis 51299) is listed as “Positive (Growth @”.

In the case of `CO[C@@]1(NC(=O)Cc2cccs2)C(=O)N2C(C(=O)O)=C(COC(N)=O)CS[C@@H]21` [Cefoxitin], the “CLSI-Defined QC Range” value (E. coli 25922) is listed as 2 to 8 µg/mL, the “CLSI-Defined QC Range, screen result” value (S. aureus 29213) is listed as “Negative (No growth” and the “CLSI-Defined QC Range, screen result” value (S. aureus 43300) is listed as “Positive (Growth @”.

`CC1(C)S[C@@H]2[C@H](NC(=O)[C@H](N)c3ccccc3)C(=O)N2[C@H]1C(=O)O` [Ampicillin] gave an MICs obtained from panel made from Master Plate (patient sample microbes [1]) of 4 µg/mL, an MICs obtained from 96-well Antibiotic Panel (patient sample microbes [1]) of 8 µg/mL and an MICs obtained from panel made from Master Plate (patient sample microbes [2]) of 1 µg/mL. The MICs obtained from 96-well Antibiotic Panel (patient sample microbes [2]) was 1 µg/mL, the “CLSI-Defined QC Range” value (E. coli 25922) was 2 to 8 µg/mL and the “CLSI-Defined QC Range” value (E. faecalis 29212; [5]) was 0.5 to 2 µg/mL. The “CLSI-Defined QC Range” value (K. pneumoniae 700603) was greater than 128 µg/mL, the “Quality Control Range” value (patient sample microbes [3]) was 2-8 and the “Quality Control Range” value (patient sample microbes [4]) was 0.5-2.

For Gentamicin, the “CLSI-Defined QC Range, screen result” value (E. faecalis 29212) is given as “Negative (No growth”, the “CLSI-Defined QC Range” value (E. faecalis 29212; E. faecalis 29212, Gram negative panel) is given as 4 to 16 µg/mL and the “CLSI-Defined QC Range” value (E. faecalis 29212; [5]) is given as 4 to 16 µg/mL. The “CLSI-Defined QC Range, screen result” value (E. faecalis 51299) was “Positive (Growth @”.

In the case of `C/C(=C\C(=O)OCCCCCCCCC(=O)O)C[C@@H]1OC[C@H](C[C@@H]2O[C@H]2[C@@H](C)[C@H](C)O)[C@@H](O)[C@H]1O` [Mupirocin High Level Screen, Mupirocin], the “CLSI-Defined QC Range, screen result” value (S. aureus 29213) is listed as “Negative (No growth” and the “CLSI-Defined QC Range, screen result” value (S. aureus BAA-1708) is listed as “Positive (Growth @”.

For `C[C@H]1[C@H](NC(=O)/C(=N\OC(C)(C)C(=O)O)c2csc(N)n2)C(=O)N1S(=O)(=O)O` [Aztreonam], the “CLSI-Defined QC Range” value (E. coli 25922) is given as 0.06 to 0.25 µg/mL and the “CLSI-Defined QC Range” value (K. pneumoniae 700603) is given as 8 to 64 µg/mL.
